Assay results published in US11136597B2, “Compositions for enhancing targeted gene editing and methods of use thereof” (Yale University, priority 2016, dated 2021).

How the values were obtained:
[1] = system: skin fibroblasts from β-globin/GFP mice, IVS2-654 (C→T) mutation; experiment: GFP/beta globin gene correction assay in mouse skin fibroblasts with DNA repair or other small molecule inhibitors; type: cell-based; settings: inhibitor given 48 hours before tcPNA1 + donor DNA nanoparticles, flow cytometry 72 hours later
Experimental: Skin fibroblasts were isolated from the β-globin/GFP mice (intron 2 of human β-globin inserted with in the GFP coding regions) and grown in culture in DMEM medium plus 10% FCS. The intron contains the IVS2-654 (C→T) mutation. The gene correction assay is illustrated in FIG. 5A.
The fibroblasts were treated ex vivo with nanoparticles containing tcPNA1+ Donor DNA and 72 hours later flow cytometry analysis was performed to quantify the % gene correction based on the frequency of GFP positive cells. In some cases, DNA repair inhibitors or other small molecule inhibitors were given 48 hours before the nanoparticle treatment.

[2] = system: CD117+ cells from β-globin/GFP transgenic mice; experiment: Ex vivo gene editing in pre-sorted CD117+ cells with or without SCF or c-Kit pathway kinase inhibitors; type: cell-based, mouse; settings: for gene editing frequency in pre-sorted CD117+ cells in presence of kinase inhibitor: γtcPNA4/donor DNA NPs plus inhibitor: dasatinib 200 nM, MEK162 1.0 μM, BKM120 3.0 μM
Experimental: For CD117+ cell experiments, Iscove's Modified Dulbecco's Media (IMDM) media containing insulin (10 ng/ml), FCS (10%) and erythropoietin (1 U/ml) was used to culture CD117+ cells after isolation using magnetic separation. Where indicated, 3 μg/ml of SCF (Recombinant murine SCF, catalog #250-03, PeproTech, Rocky Hill, N.J.;) was added prior to nanoparticle treatment. 2 mg/ml of NPs were used to treat 50,000-100,000 CD117+ cells in triplicate for 48 hrs in the above media, followed by flow cytometry analyses as above. Inhibitors were used at concentrations of 200 nM (dasatinib), 1.0 μM (MEK162) and 3.0 μM (BKM120). Dasatanib was obtained from Cayman Chemical (Ann Arbor, Mich.; item #11498) and dissolved according to manufacturer's protocol. MEK162 and BKM120 were obtained from Dr. Harriet Kluger, Yale University.
BD Bioscience kit catalog #558451 (BDImag™ Hematopoietic Progenitor Stem Cell Enrichment Set—DM) was used to isolate CD117 cells. Enrichment for CD117 was confirmed by flow cytometry. CD117+ enriched cells were labeled with CD117-APC (BD Pharmingen™ catalog #558451) antibody. Cells were co-labelled with control IgG antibody (BD Pharmingen™ catalog #555746) for gating purposes. To quantify GFP expression, after CD117 co-labelling, flow cytometry was performed using FACScaliburS by resuspending cells in PBS/1% FBS where green fluorescent cells are measured in the Fl1 channel and APC stained cells are in the Fl4 channel Antibodies for other markers were Ter119 (BD Pharmingen™ catalog #561033) and CD45 APC (BD Pharmingen™ catalog #561018).
To explore the mechanism of the increased gene editing in CD117+ cells, the requirement of c-Kit-dependent signaling for elevated gene correction or whether CD117 simply serves as a marker for the increased susceptibility to gene editing was distinguished. To do this, γtcPNA4/donor DNA NP-mediated gene editing was assayed in pre-sorted CD117+ cells in the presence or absence of selected kinase inhibitors (FIG. 2D). Dasatinib, which inhibits the c-Kit kinase in addition to the BCR/Abl and Src kinases, reduced the gene editing from 7% to 2.0%.

[3] = system: homology-dependent repair (HDR); experiment: Luciferase reporter gene assay for homology-dependent repair (HDR) in CD117+ cells; type: cell-based, mouse; settings: CD117+ cells
Experimental: An inactivating I-Sce1 site was cloned 56 amino acids into the firefly luciferase open reading frame under the control of a CMV promoter. The reporter construct also contains a promoterless luciferase gene used as a template for homologous recombination. A double-strand break in the luciferase reporter is created by in vitro digestion with the I-Sce I restriction enzyme (NEB #R0694L). Plasmid DNA was digested with I-Sce 1 for 1 hour at 37° C. at a ratio of 10 units enzyme to 1 μg DNA and then the enzyme was inactivated at 65° C. for 20 minutes. The linearization of the plasmid was confirmed for each digestion via gel electrophoresis and the linear plasmid was purified using the Qiagen Qiaquick spin columns. After separation CD117+ and CD117-cells from bone marrow of β-globin/GFP transgenic mice, cells were transfected using the Lonza 2b Nucleofector Device. 5×10^5 cells were transfected with 1 μg of either the luciferase reporter vector or a positive control firefly luciferase expression vector, along with 50 ng of a renilla luciferase expression plasmid as a transfection efficiency control. All transfections were performed in triplicate. After transfection the cells were plated at a density of 5×10^5 cells/ml in 12-well plates. After 24 hours incubation post transfection, luciferase activity was measured using the Promega Dual Luciferase Assay Kit. In each sample firefly luciferase activity was normalized to the renilla luciferase transfection control. Reporter reactivation was calculated as a ratio of normalized firefly luciferase activity in the cells transfected with the reporter plasmid to the positive control.
To test whether the above increases in DNA repair gene expression could be correlated with functional differences in DNA repair, a luciferase-based assay was used to quantify repair of DNA double-strand breaks (DSBs) by HDR. In this assay, repair of a DSB in a reporter plasmid via intramolecular homologous recombination creates (“reactivates”) a functional luciferase gene (FIG. 2H), and so the assay provides a measure of HDR capacity (FIG. 2J).

[4] = system: 120 bp double-stranded DNA fragments containing β-globin sequences; experiment: Gel mobility shift assay of SCD tcPNAs; type: binding, human; settings: physiological conditions
Text: Each 120 bp dsDNA contained the binding site for the respective tcPNAs.

[5] = system: IVS2-654 (C→T) mutation within the β-globin/GFP fusion gene; experiment: Ex vivo gene correction (% GFP+ cells, flow cytometry) in bone marrow cells from β-globin/GFP transgenic mice; type: cell-based, mouse; settings: total bone marrow cells, 2 mg/ml PLGA NPs with donor DNA, 48 hr
Text: To assay for gene editing in a robust and quantitative manner, a transgenic mouse model was utilized with a β-globin/GFP fusion transgene of human β-globin intron 2 carrying a thalassemia-associated IVS2-654 (C→T) mutation embedded within the GFP coding sequence, resulting in incorrect splicing of β-globin/GFP mRNA and lack of GFP expression (Sazani, et al., Nat. Biotechnol., 20:1228-1233 (2002)). PNA-mediated triplex-formation induces DNA repair and recombination of the genomic site with a 60-nucleotide sense donor DNA that is homologous to a portion of the β-globin intron 2 sequence except for providing a wild-type nucleotide at the IVS2-654 position. Via recombination, the splice-site mutation is corrected and expression of functional GFP occurs (FIG. 1A) (McNeer, et al., Gene Therapy, 20:658-669 (2013); Bahal, et al., Curr. Gene Ther., 14:331-342 (2014)). […]
BD Bioscience kit catalog #558451 (BDImag™ Hematopoietic Progenitor Stem Cell Enrichment Set—DM) was used to isolate CD117 cells. […] To quantify GFP expression, after CD117 co-labelling, flow cytometry was performed using FACScaliburS by resuspending cells in PBS/1% FBS where green fluorescent cells are measured in the Fl1 channel and APC stained cells are in the Fl4 channel Antibodies for other markers were Ter119 (BD Pharmingen™ catalog #561033) and CD45 APC (BD Pharmingen™ catalog #561018).

[6] = system: 120-bp DNA duplexes containing the respective target sequences (β-globin intron 2); experiment: DNA binding gel shift assay of tcPNAs; parameters: species or system human; settings: 120-bp dsDNA, 37 C, 10 mM NaPi pH 7.4
Experimental: For gel electrophoresis, synthetic 120 bp dsDNA targets were incubated with indicated oligomers at 37 C in low ionic strength buffer (10 mM NaPi, pH 7.4). The samples were separated on 10% non-denaturing polyacrylamide gels in 1×TBE buffer. The gels were run at […] for 1.5 hr. After electrophoresis, the gels were stained with 1×SYBR-Gold (catalog #S11494, Invitrogen) for 10 min, washed 2× with 1×TBE buffer, and then imaged using a gel documentation system (BioDoc-It System). The images were then inverted using Adobe Photoshop 6.0.

`O=C(c1cc(Cc2n[nH]c(=O)c3ccccc23)ccc1F)N1CCN(C(=O)C2CC2)CC1` [AZD-2281] was tested, and the “effect on gene editing (% gene correction, GFP positive cells)” value [1] was “boosts gene editing”.
`Nc1cc(C(F)(F)F)c(-c2cc(N3CCOCC3)nc(N3CCOCC3)n2)cn1` [BKM120, reference compound] was tested, and the “gene editing frequency in pre-sorted CD117+ cells in presence of kinase inhibitor” value (from here on “gene editing frequency … of kinase inhibitor”) [2] was 4.1% and the “HDR repair activity (luciferase reactivation) in CD117+ cells” value [3] was “diminished”.
With `Cc1nc(Nc2ncc(C(=O)Nc3c(C)cccc3Cl)s2)cc(N2CCN(CCO)CC2)n1` [Dasatinib] the “fold reduction of gene editing frequency” value ([2]; CD117+ cells, inhibition of c-Kit kinase) was roughly 4 fold and the “gene editing frequency … of kinase inhibitor” value [2] was 2.0%.
In the case of `Cn1cnc2c(F)c(Nc3ccc(Br)cc3F)c(C(=O)NOCCO)cc21` [MEK162, reference compound], the “gene editing frequency … of kinase inhibitor” value [2] is reported as 2.6% and the “HDR repair activity (luciferase reactivation) in CD117+ cells” value [3] is reported as “diminished”.
For `CC(C)c1cc(-c2n[nH]c(=O)n2-c2ccc3c(ccn3C)c2)c(O)cc1O` [STA-9090/Ganetespib], the “effect on gene editing (% gene correction, GFP positive cells)” value [1] was “enhances gene editing”.
For `C[C@@]1(CO)[C@H](O)CC[C@@]2(C)[C@H]1CC[C@H]1C[C@@H]3C[C@@]12CC[C@]3(O)CO` [aphidicolin], the “effect on gene editing (% gene correction, GFP positive cells)” value [1] was “boosts gene editing”.
For “H-KKK-JJTJTTJ-OOO-CTTCTCCACAGGAGTCAG-KKK-NH2 (NNTNTTNCTTCTCCACAGGAGTCAG; listed as DNA, chemistry not fully specified) [SCD-tcPNA 1]”, the “binding to 120 bp double-stranded DNA fragments (gel mobility shift)” value (shortened to “binding … (gel mobility shift)”) [4] was “binding”.
For “H-KKK-JTTTJTTTJTJT-OOO-TCTCTTTCTTTCAGGGCA-KKK-NH2 (NTTTNTTTNTNTTCTCTTTCTTTCAGGGCA; miniPEG γ units, lysine caps, amide, chemistry not fully specified) [γtcPNA4]”, the “genome modification frequency (% GFP+ cells)” value [5] was 1.62%.
In the case of “H-KKK-TJTJTTJT-OOO-TCTTCTCTGTCTCCACAT-KKK-NH2 (TNTNTTNTTCTTCTCTGTCTCCACAT; listed as DNA, chemistry not fully specified) [SCD-tcPNA 3]”, the “binding … (gel mobility shift)” value [4] is reported as “binding”.
With “H-KKK-TTJJTJT-OOO-TCTCCTTAAACCTGTCTT-KKK-NH2 (TTNNTNTTCTCCTTAAACCTGTCTT; listed as DNA, chemistry not fully specified) [SCD-tcPNA 2]” the “binding … (gel mobility shift)” value [4] was “binding”.
For “H-KKK-TTJTTTJTTJTJ-OOO-CTCTTCTTTCTTGACAGG-KKK-NH2 (TTNTTTNTTNTNCTCTTCTTTCTTGACAGG; lysine caps, linker, C-terminal amide, chemistry not fully specified) [γtcPNA4-Scr, scrambled version of γtcPNA4 with the same base composition]”, the “binding to target site in duplex DNA (gel shift)” value [6] was “No binding” and the “genome modification frequency (% GFP+ cells)” value [5] was “no modification”.
